In article PMC9861623, “New Ferulic Acid and Amino Acid Derivatives with Increased Cosmeceutical and Pharmaceutical Potential” (Pharmaceutics, 2022):
Values joined by “and” are separate entries in the source; they are usually repeats but may differ in a detail not shown here. Equal values may be shown once.

Experiments:
[1] = design: method as in PMID 20692328; settings: cited from earlier work
[2] = test system: UVB irradiated human melanocytes; design: method as in PMID 19274591; settings: cited from earlier work
[3] = n-octanol/water partition coefficient by shake flask method; assay type: physicochemical; settings: for log PO/W: n-octanol/water, shake flask, 25 °C
Experimental: The n-octanol/water partition coefficient (log PO/W) was determined for ferulic acid and its derivatives by shake flask method. n-Octanol saturated with water and water saturated with n-octanol were prepared at 25 °C, 24 h prior to their use in the experiments. Then, a sample of 10 mg of compound was weighed with the accuracy of 0.01 mg in a 16 cm^3 screwed vial and dissolved in 5 cm^3 of n-octanol. Next, 5 cm^3 of water was added to the vial. The resulting two-phase mixture was kept in water bath shaker at 25 °C for 2 h and was strongly shaken to reach the partition equilibrium of the compound between the phases. Then the mixture was left unshaken for 30 min and 1.0 cm^3 of water phase was carefully taken out to centrifuge tube. The sample was next centrifuged for 10 min at 7500 rpm at 25 °C to ensure the most precise phase separation. The concentration of compound in water phase was then determined using HPLC method. The partition coefficient, log PO/W was calculated according to the formula: logPO/W=logC0V0−CWVW/CWVW where: C0—initial concentration of the compound in n-octanol, calculated based on the weighed mass of compound, mg·cm^−^3; V0—volume of n-octanol, cm^3; CW—concentration of the compound in water after partition equilibrium, mg·cm^−^3; VW—volume of water, cm^3.

[4] = Skin permeation in Franz diffusion cells; assay type: in vitro ADME, pig; settings: 24 h, 10 mg as FA applied
Experimental: In the experiment, abdominal porcine skin coming from the local slaughterhouse was used. Pig skin was chosen because of its similar permeability to human skin [34, 35]. The fresh abdominal porcine skin was washed several times in PBS buffer pH 7.4. The skin of 0.5 mm in thickness was dermatomed and divided into 2 cm × 2 cm pieces. The skin samples were wrapped in aluminum foil and stored at −20 °C until use, not longer than 3 months. According to Badran et al., this storage time at this temperature is safe to keep skin barrier properties. Immediately before the experiment, the skin samples were slowly thawed at room temperature for 30 min and then were hydrated by PBS pH 7.4 [37, 38, 39, 40]. Such prepared skin was mounted on donor chamber. Only the undamaged skin pieces with an even thickness were chosen for experiments. The integrity of the skin was checked by impedance measurement using an LCRmeter4080 (Conrad Electronic, Hirschau, Germany), operated in parallel mode at an alternating frequency of 120 Hz (error at kΩ values < 0.5%). The tips of measuring probes were immersed in the donor and acceptor chamber containing PBS (pH 7.4), as described previously. Only skin samples of impedance > 3 kΩ were applied as such impedance is similar to the electrical resistance of human skin [42].
The concentration of FA and its derivatives in the acceptor fluid and in the fluid obtained by skin extraction after permeation experiment was assessed using liquid chromatography system (Knauer, Berlin, Germany) consisting of a model 2600 UV detector, Smartline model 1050 pump and Smartline model 3950 autosampler. HPLC was controlled by ClarityChrom 2009 software. The detector was operated at 280 nm. The separations were performed on 125 mm × 4 mm ID chromatographic column filled with Hyperisil ODS (C18), particle size 5 µm, in isocratic mode. The mobile phase consisted of acetonitrile, 1% acetic acid, and MeOH (47/47/6 v/v/v) and was pumped at flow rate of 1 mL min^−1. The column temperature was set at 25 °C, and the injection volume was 20 µL.
(§1) The permeation experiments were performed using Franz diffusion cells (Phoenix DB-6, ABL&E-JASCO, Wien, Austria). The diffusion was 1 cm^2. The volume of the acceptor chamber was 8 mL. This chamber was filled with PBS solution (pH 7.4). During experiment, a constant temperature of 37.0 ± 0.5 °C was maintained in each diffusion unit. The acceptor chamber content was stirred with a magnetic stirring bar at the same speed for all cells. The prepared pig skin was mounted on each donor chamber. As previously mentioned, only undamaged skin pieces with an even thickness were chosen for experiments. Thereafter, the hydrogel or emulsion vehicle/preparation in 1 g portion was put on the skin in donor cells. For comparison, 1 mL ethanolic solution containing either FA or its derivatives was applied to another donor chamber. The amount of the FA and its derivatives applied on the skin expressed as the mass of ferulic acid was 0.01 g and was the same for each carrier. The penetration experiments were carried out for 24 h. The samples were collected after 1 h, 2 h, 3 h, 4 h, 5 h, 6 h, 8 h, and 24 h. Aliquots of the acceptor fluid (0.5 mL) were withdrawn and to each acceptor chamber the same volume of fresh PBS solution was added. The FA and its derivatives’ concentrations in the acceptor fluid were measured by HPLC method (Section 2.6.2). The cumulative mass (µg·cm^−2) and penetration rate (µg·cm^−2·h^−1) were calculated. The acceptor fluid collected after 24 h of permeation was also measured for antioxidant activity and total polyphenol content (as described in Section 2.5.1 and Section 2.5.2).

[5] = DPPH radical scavenging assay of the compounds
Experimental: (§2) To determine the antioxidant capacity of ferulic acid and its derivatives the DPPH method was used. The analyses were performed using the Hitachi UV-Vis Spectrophotometer U-5100 at the wavelength λ = 517 nm. Trolox (6-hydroxy-2,5,7,8-tetramethylchroman-2-carboxylic acid) was used as a reference substance. The antioxidant activity was expressed as %RSA and mmol Trolox dm^−3. […]. Blank samples without antioxidant were prepared in the same way. The tubes were wrapped in aluminum foil and were sealed with a stopper and then incubated for 10 min at room temperature. After this time, spectrophotometric measurements were carried out in triplicate. For determination of antioxidant activity of the acceptor fluid after 24 h of permeation and solutions obtained by extraction of the skin obtained after penetration study, 0.15 mL samples of each solutions were separately added to 2.85 mL of DPPH solution and spectrophotometric measurements were performed. The antioxidant activity was expressed as mmol Trolox·dm^−3.

[6] = Thermogravimetric (TG) analysis, thermal stability; assay type: physicochemical; settings: air atmosphere, 10 °C·min^−1; for Td onset, the onset of decomposition: TG; for Td max, temperature of the fastest mass loss of the sample: TG/DTG
Experimental: Samples of 2–5 mg, loaded in aluminium crucibles, were heated from 30 °C to 600 °C at the heating rate of 10 °C·min^−1, in the air atmosphere (25 mL·min^−1) with nitrogen flow (10 mL·min^−1) as the purge gas.

[7] = DPPH antioxidant activity of acceptor fluid after 24 h permeation; design: species or system pig; settings: after 24 h penetration
Experimental: as §2, §1

[8] = DPPH antioxidant activity of solution obtained after skin extraction; design: species or system pig; settings: after 24 h penetration
Experimental: as §2
The accumulation of the FA and its derivatives in the skin after 24 h permeation process through the skin were determined using a modification of the methods described by Janus et al. and Taokaew et al.. After 24 h of permeation experiment, the skin samples were removed from the Franz diffusion cell, washed three times with 0.5% sodium lauryl sulfate solution and dried at room temperature. Next, after cutting out the diffusion area of each skin sample, the samples were immersed in 2 mL of absolute ethanol and continuously stirred at 300 rpm at room temperature for 24 h. The samples were then centrifuged, and clear solutions were collected and analyzed by HPLC method for the determination of FA and its derivatives. The accumulation of the active substance in the skin was calculated by dividing the amount of the drug remaining in the skin by a mass of skin sample and was expressed in mass active substance per mass of the skin (µg g^−1). For solution obtained after skin extraction, the antioxidant activity and total polyphenol content were also determined (as described in Section 2.5.1 and Section 2.5.2).

[9] = from solution in 70% (v/v) ethanol
[10] = molar ratio antioxidant:DPPH 0.1, 10 min
[11] = molar ratio antioxidant:DPPH 1.0, 10 min
[12] = molar ratio antioxidant:DPPH 2.0, 10 min

Structure (SMILES) | skin permeation compared with pure FA [1] | log PO/W [3] | Cumulative Permeation Mass ([4]; from emulsion) [a µg FA·cm^−2] | Cumulative Permeation Mass ([4]; from hydrogel) [a µg FA·cm^−2] | Cumulative Permeation Mass [4, 9] | Antioxidant activity %RSA [5, 10] | Antioxidant activity, Trolox equivalents [5, 10] | Antioxidant activity %RSA [5, 11] [b %RSA] | Antioxidant activity, Trolox equivalents [5, 11] [b mmol Trolox dm^−3] | Antioxidant activity %RSA [5, 12] | Antioxidant activity, Trolox equivalents [5, 12] | Td onset, the onset of decomposition [6] [°C] | Td max, temperature of the fastest mass loss of the sample [6] [°C] | DPPH antioxidant activity of the acceptor fluid ([7]; emulsion) | DPPH antioxidant activity of the acceptor fluid ([7]; ethanol solution) | DPPH antioxidant activity of the acceptor fluid ([7]; hydrogel) | DPPH antioxidant activity of the solution obtained after skin extraction ([8]; emulsion) | DPPH antioxidant activity of the solution obtained after skin extraction ([8]; ethanol solution) [a mmol Trolox dm^−3] | DPPH antioxidant activity of the solution obtained after skin extraction ([8]; hydrogel) | also measured
COc1cc(/C=C/CO)ccc1O [CA, coniferyl alcohol] | permeated the skin to a higher degree than pure FA | – | – | – | – | – | – | – | – | – | – | – | – | – | – | – | – | – | – | –
COc1cc(/C=C/C=O)ccc1O [CD, coniferyl aldehyde] | permeated the skin to a higher degree than pure FA | – | – | – | – | – | – | – | – | – | – | – | – | – | – | – | – | – | – | –
CCOC(=O)/C=C/c1ccc(O)c(OC)c1 [FAEE, ferulic acid ethyl ester] | permeated the skin to a higher degree than pure FA | – | – | – | – | – | – | – | – | – | – | – | – | – | – | – | – | – | – | production of ROS [2]: reduced the production of ROS
CCCOC(=O)CN.COc1cc(/C=C/C(=O)O)ccc1O [GPr[FA], glycine propyl ester ferulate] | – | 0.582 ± 0.019 | 101.70 ± 26.47 | 268.16 ± 12.71 | 378.26 ± 2.29 a µg FA·cm^−2 | 17.6 ± 0.001 %RSA and 17.6 ± 0.001 a %RSA | 0.099 ± 0.001 mmol Trolox dm^−3 and 0.099 ± 0.001 a mmol Trolox dm^−3 | 78.0 ± 0.001 | 0.681 ± 0.001 | 86.6 ± 0.001 %RSA and 86.6 ± 0.001 b %RSA | 0.764 ± 0.001 mmol Trolox dm^−3 and 0.764 ± 0.001 b mmol Trolox dm^−3 | 129.6 | 145.3 | 0.059 ± 0.010 a mmol Trolox dm^−3 | 0.097 ± 0.021 b mmol Trolox dm^−3 | 0.069 ± 0.002 a mmol Trolox dm^−3 | 0.235 ± 0.037 a mmol Trolox dm^−3 | 0.257 ± 0.026 | 0.298 ± 0.009 a mmol Trolox dm^−3 | Share of compound partitioned to n-octanol ([3]; from log PO/W): 79%
CCCOC(=O)[C@@H](N)CC(C)C.COc1cc(/C=C/C(=O)O)ccc1O [LPr[FA], L-leucine propyl ester ferulate] | – | 0.454 ± 0.009 | 119.29 ± 19.72 | 267.48 ± 24.57 | 415.12 ± 8.71 µg FA·cm^−2 and 415.12 ± 8.71 b µg FA·cm^−2 | 17.6 ± 0.001 %RSA and 17.6 ± 0.001 a %RSA | 0.098 ± 0.001 mmol Trolox dm^−3 and 0.098 ± 0.001 a mmol Trolox dm^−3 | 79.5 ± 0.001 | 0.696 ± 0.001 | 87.8 ± 0.001 %RSA and 87.8 ± 0.001 b %RSA | 0.776 ± 0.001 mmol Trolox dm^−3 and 0.776 ± 0.001 b mmol Trolox dm^−3 | 126.0 | 156.0 | 0.053 ± 0.005 mmol Trolox dm^−3 and 0.053 ± 0.005 a mmol Trolox dm^−3 | 0.098 ± 0.011 mmol Trolox dm^−3 and 0.098 ± 0.011 a mmol Trolox dm^−3 | 0.063 ± 0.009 mmol Trolox dm^−3 and 0.063 ± 0.009 a mmol Trolox dm^−3 | 0.257 ± 0.014 ab mmol Trolox dm^−3 | 0.255 ± 0.038 | 0.298 ± 0.009 mmol Trolox dm^−3 and 0.320 ± 0.030 ab mmol Trolox dm^−3 | DPPH antioxidant activity of the solution obtained after skin extraction ([8]; ethanol solution, listed as Leu[FA]): 0.255 ± 0.038 mmol Trolox dm^−3
